Holding throughout (format): biochemical
In test [1] the target is T1, MMP-12 (macrophage metalloelastase) (Homo sapiens, UniProt P39900).
T1 construct: made in house
The test is described as follows: Determination of the inhibition constant (Ki) for MMP-12, fluorogenic substrate assay (cuvette or microtiter plate). To be noted: substrate Mca-Pro-Leu-Gly-Leu-Dpa-Ala-Arg-NH2, 25C, pH 7.6, [MMP-12] = 2 nM, cuvette or microtiter plate method. How it is done: MMP-12 (EC 3.4.24.65) was cloned, expressed and purified according to Shapiro, S.D. et al., J Biol. Chem. 268, 23824-23829 (1993). […] Aliquots of MMP-12 were stored at -70C.
The potency of inhibitors of MMP-12 was measured using either quartz cuvettes or microtiter plates. The activity of MMP-12 was measured using a fluorogenic substrate, Mca-Pro-Leu-Gly-Leu-Dpa-Ala-Arg-NH2, Knight, C.G. et al., FEBS Lett. 296,263-266 (1992), at 25C in an assay buffer containing 50 mM Tris, pH 7.6, 0.2 M NaCl, 50 mM CaCl2, and 0.02% Brij-35. The increase in fluorescence due to cleavage of Gly-Leu peptide bond by MMP-12 was monitored with a Perkin-Elmer LS50B Fluorimeter (λex 328 nm, λem 393 nm, excitation slit 2.5, emission slit 10) for the cuvette assay and with a Molecular Devices Fmax fluorescence plate reader (λex 320 nm, λem 405 nm) for the microtiter plate assay. Substrate and inhibitor stock solutions were made in N,N,dimethylformamide (DMF) and 0.1% HCI-DMF, respectively. […]
Ki values were determined using the microtiter plate method in a manner similar to that described for the cuvette method with some modifications. […] Cleavage of substrate was recorded every 30 seconds for 30 minutes and progress curves were generated. […]

A further test addresses T2, MMP-2 (Homo sapiens, UniProt P08253).
T2 construct: made in house; host or cells: Pichia pastoris (strains KM71 / SMD1168, clone 24S)
T2 sequence (P08253 110-660): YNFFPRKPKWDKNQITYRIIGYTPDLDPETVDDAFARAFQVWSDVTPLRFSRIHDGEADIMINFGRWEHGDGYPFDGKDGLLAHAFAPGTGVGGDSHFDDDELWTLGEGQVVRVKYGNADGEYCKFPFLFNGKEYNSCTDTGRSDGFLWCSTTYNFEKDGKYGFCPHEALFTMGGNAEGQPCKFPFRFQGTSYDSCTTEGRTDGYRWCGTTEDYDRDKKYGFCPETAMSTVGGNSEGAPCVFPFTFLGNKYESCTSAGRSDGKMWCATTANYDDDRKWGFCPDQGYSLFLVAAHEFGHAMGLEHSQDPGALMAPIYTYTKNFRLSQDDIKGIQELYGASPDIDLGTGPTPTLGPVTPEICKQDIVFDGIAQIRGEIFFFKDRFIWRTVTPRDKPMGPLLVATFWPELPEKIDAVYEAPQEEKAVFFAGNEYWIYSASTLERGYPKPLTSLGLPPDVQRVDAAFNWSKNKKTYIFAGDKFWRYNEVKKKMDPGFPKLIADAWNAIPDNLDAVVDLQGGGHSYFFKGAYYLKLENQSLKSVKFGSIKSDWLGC
The test is described as follows: Determination of Inhibition Constant (Ki) for MMP-2, fluorogenic substrate assay. To be noted: recombinant MMP-2, substrate Mca-Pro-Leu-Gly-Leu-Dpa-Ala-Arg-NH2, 37°C, pH 7.6, [S] = 1 µM, [MMP-2] = 0.4 nM. From the text:
Recombinant MMP-2 was purified from the fermentation broth of yeast Pichia pastoris that carries the integrated MMP-2 gene into its chromosome. In brief, the full-length cDNA for MMP-2 was obtained by reverse transcription of RNA from human melanoma A375M cell line by the reverse transcriptase polymerase chain reaction (RT-PCR) using sequence specific oligonucleotides. The nucleotide sequence was confirmed by Taq cycle sequencing. The cDNA was ligated into the Pichia pastoris expression vector pHIL-D2 in such a way that the expression of pro-MMP2 is under the control of the methano inducible alcohol oxidase promoter. The expression construct was digested with either SalI or NsiI and used to transform the Pichia pastoris strains KM71 and SMD1168. […]
The active MMP-2 was obtained by activation of proMMP-2 at 37°C for 1 h with 4-aminophenylmercuric acetate which was then removed by a Sephadex G-50 spin column. […] The increase in fluorescence is monitored (λex 328 nm, λem 393 nm). […] Under these conditions, the measured Ki, app is close to true Ki.
(§1) The Ki for a competitive inhibitor is calculated using: v0/vi = (1 + [I]/Ki, app) and Ki = Ki, app/(1 + [S]/Km), where v0 is the initial rate in the absence of inhibitor, vi is the initial rate in the presence of inhibitor at the concentration of [I], [S] is the substrate concentration, and Km is the Michaelis constant. […]

The next test deals with T3, MMP-3 (Homo sapiens, UniProt P08254).
T3 construct: The active MMP-3 was obtained by treatment of proMMP-3 with trypsin; endogenous in cells; host or cells: human rheumatoid synovial fibroblasts stimulated with macrophage-conditioned medium (secreted proenzyme purified from the culture medium)
Description: Determination of Inhibition Constant (Ki) for MMP-3, fluorogenic substrate assay. To be noted: activated MMP-3, substrate Mca-Pro-Leu-Gly-Leu-Dpa-Ala-Arg-NH2, 37°C, pH 7.6, [S] = 1 µM, [MMP-3] = 1 nM. The procedure: ProMMP-3 (EC 3.4.24.17; Stromelysin-1) was purified from culture medium of human rheumatoid synovial fibroblasts stimulated with macrophage-conditioned medium according to Okada, Y. et al., J. Biol. Chem. 261, 14245-14255 (1986). The active MMP-3 was obtained by treatment of proMMP-3 with trypsin (5 µg/mL) at 37°C for 30 min, followed by addition of soybean trypsin inhibitor (50 µg/mL). Aliquots of the activated MMP-3 were stored at -20°C.
The activated MMP-3 is assayed using a fluorogenic substrate, Mca-Pro-Leu-Gly-Leu-Dpa-Ala-Arg-NH2, Knight, C.G. et al., FEBS Lett. 296, 263-266 (1992), at 37°C in an assay buffer containing 50 mM Tris, pH 7.6, 0.2 M NaCI, 50 mM CaCl2, and 0.02% Brij-35. The increase in fluorescence due to cleavage of Gly-Leu peptide bond by MMP-3 was monitored with Perkin-Elmer LS50B Fluorimeter (λex 328 nm, λem 393 nm, excitation slit 2.5, emission slit 10). Substrate and inhibitor stock solutions were made in DMF and 0.1% HCl-DMF, respectively. […] Under these conditions, the measured Ki, app is close to true Ki.
as §1

The structures appear in SMILES notation.

For two compounds, Ki results are on record in patent EP0928291B1, “3-MERCAPTOACETYLAMINO-1,5-SUBSTITUTED-2-OXO-AZEPAN DERIVATIVES USEFUL AS INHIBITORS OF MATRIX METALLOPROTEINASE” (Aventis Pharmaceuticals Inc., priority 1996, dated 1998).

T3 sequence (P08254 100-477): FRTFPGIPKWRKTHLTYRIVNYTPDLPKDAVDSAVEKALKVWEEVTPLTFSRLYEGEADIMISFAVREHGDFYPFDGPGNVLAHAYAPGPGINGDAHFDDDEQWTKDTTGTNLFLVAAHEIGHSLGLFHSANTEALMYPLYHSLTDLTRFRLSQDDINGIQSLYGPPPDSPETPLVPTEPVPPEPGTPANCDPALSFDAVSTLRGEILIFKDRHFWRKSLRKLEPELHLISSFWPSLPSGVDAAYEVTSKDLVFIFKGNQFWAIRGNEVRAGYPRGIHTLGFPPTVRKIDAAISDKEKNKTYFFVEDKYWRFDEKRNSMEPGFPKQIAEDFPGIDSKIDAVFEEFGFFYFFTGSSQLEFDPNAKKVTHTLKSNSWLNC
T1 sequence (P39900 106-263 limits assumed): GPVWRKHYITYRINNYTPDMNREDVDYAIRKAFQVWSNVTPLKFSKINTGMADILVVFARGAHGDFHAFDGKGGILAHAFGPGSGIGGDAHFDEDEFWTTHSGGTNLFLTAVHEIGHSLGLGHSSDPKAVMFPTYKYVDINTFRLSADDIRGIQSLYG

As usually defined, the Ki is the equilibrium dissociation constant of an inhibitor or competing ligand from its target. Turning to `CNC(=O)C(Cc1ccccc1)N1CCC(c2ccccc2)CC(NC(=O)C(S)CCCCN2C(=O)c3ccccc3C2=O)C1=O` (stereo not drawn) [Compound II-1, 2H-Isoindole-2-hexanamide, N-[hexahydro-1-[2-(methylamino)-2-oxo-1-(phenylmethyl)ethyl]-2-oxo-5-phenyl-1H-azepin-3-yl]-1,3-dihydro-α-mercapto-1,3-dioxo-, [3S-(1(R*), 3α, 5α]]-], the values for the Ki (in test [1]; on MMP-2; on MMP-3) were 18 nM, 1.2 nM and 39 nM, respectively.

For the compound `CNC(=O)C(Cc1ccccc1)N1CCC(c2ccccc2)CC(NC(=O)C(S)CCCCN2C(=O)c3ccccc3C2=O)C1=O` (stereo not drawn) [Compound III-1, 2H-Isoindole-2-hexanamide, N-[hexahydro-1-[2-(methylamino)-2-oxo-1-(phenylmethyl)ethyl]-2-oxo-5-phenyl-1H-azepin-3-yl]-1,3-dihydro-α-mercapto-1,3-dioxo-, [3S-[1(R*), 3α, 5β]]-], the Ki in test [1] was 53 nM; on MMP-3, 73 nM.
